10 compounds from US12403137B2, “Compounds and methods of use” (Tango Therapeutics, Inc., priority 2019, dated 2025) can be followed below.

For experiment [1], the target named is T1, PRMT5 (Homo sapiens, UniProt O14744).
T1 construct: purchased Viva (custom protein)
Briefly: PRMT5 inhibition assay with MTA as cofactor. As to conditions: for IC50: against PRMT5 with MTA as cofactor; for SAM/MTA Ratio: ratio of Ki in the presence of SAM to Ki in the presence of MTA, Ki=IC50/1.5 (SAM), Ki=IC50/13.5 (MTA). Type of experiment: biochemical. An excerpt:
(§1) The Ki values can be calculated from the IC50 values as described in the Examples section. As detailed in the Examples section, for the assay performed in the presence of SAM, IC50=Ki×1.5 (Ki=IC50/1.5). For the assay performed in the presence of MTA, IC50=Ki×13.5 (Ki=IC50/13.5). Column 6 indicates the ratio between the Ki of compounds in the presence of SAM and the Ki of compounds in the presence of MTA

For experiment [2], the system named is HAP1 MTAP-intact cell line. Briefly: SDMA in-cell western assay, HAP1 MTAP-intact. As to conditions: Homo sapiens. Type of experiment: cell-based. Put shortly: (§2)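 IC50 values come from an SDMA in-cell western run in isogenic HAP1 cells, either MTAP-null or expressing endogenous MTAP. The intact-to-deleted IC50 ratio is used to score MTAP selectivity.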
The target of experiment [3] is T1, PRMT5. Nature of the experiment: PRMT5 inhibition assay with SAM as cofactor. As to conditions: against PRMT5 in the presence of SAM as cofactor. Type of experiment: biochemical.
Excerpt: as §1

The target in experiment [4] is T1, PRMT5. Briefly: PRMT5 inhibition assay with no cofactor. It is filed as biochemical. To be noted: against PRMT5 with no cofactor; read-out: No Co-factor IC50.
Experiment [5] has as its system HAP1 MTAP-deleted cell line. Briefly: SDMA in-cell western assay, HAP1 MTAP-deleted. Type of experiment: cell-based. As to conditions: for IC50: Homo sapiens, HAP1 MTAP-deleted (MTAP-null) cell line; for MTAP Intact/Deleted Ratio: IC50 ratio HAP1 MTAP-intact / HAP1 MTAP-deleted, >=3 fold considered MTAP-selective. Put shortly: as §2

Molecules are shown by their SMILES.

T1 sequence (O14744 whole entry): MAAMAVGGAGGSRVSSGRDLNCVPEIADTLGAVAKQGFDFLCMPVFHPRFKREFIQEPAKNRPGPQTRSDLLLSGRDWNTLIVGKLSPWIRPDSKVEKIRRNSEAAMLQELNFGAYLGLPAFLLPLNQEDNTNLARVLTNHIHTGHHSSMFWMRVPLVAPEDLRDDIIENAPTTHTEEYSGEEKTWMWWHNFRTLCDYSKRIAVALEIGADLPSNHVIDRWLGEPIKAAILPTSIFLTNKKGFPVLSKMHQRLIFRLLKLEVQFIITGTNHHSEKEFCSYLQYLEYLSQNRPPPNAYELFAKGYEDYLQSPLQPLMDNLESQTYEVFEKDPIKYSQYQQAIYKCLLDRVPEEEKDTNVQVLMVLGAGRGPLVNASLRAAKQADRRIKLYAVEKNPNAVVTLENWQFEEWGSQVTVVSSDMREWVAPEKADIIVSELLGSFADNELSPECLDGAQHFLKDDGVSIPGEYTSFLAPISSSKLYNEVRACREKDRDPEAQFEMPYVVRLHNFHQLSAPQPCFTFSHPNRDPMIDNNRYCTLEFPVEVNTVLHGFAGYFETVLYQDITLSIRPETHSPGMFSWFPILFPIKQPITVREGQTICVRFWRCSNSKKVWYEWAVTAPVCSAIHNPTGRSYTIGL
T1 sequence (Q9BQA1 whole entry partner): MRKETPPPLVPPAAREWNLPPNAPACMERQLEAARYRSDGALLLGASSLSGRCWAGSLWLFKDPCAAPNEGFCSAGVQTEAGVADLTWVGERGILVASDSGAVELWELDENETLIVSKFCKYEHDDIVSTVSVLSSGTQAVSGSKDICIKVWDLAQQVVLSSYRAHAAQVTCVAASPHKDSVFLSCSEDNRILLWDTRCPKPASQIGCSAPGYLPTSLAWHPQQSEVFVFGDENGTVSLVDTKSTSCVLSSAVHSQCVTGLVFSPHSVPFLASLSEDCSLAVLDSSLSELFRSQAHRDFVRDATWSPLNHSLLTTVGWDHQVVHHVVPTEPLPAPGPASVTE

Broadly, the IC50 is the point on the concentration scale where inhibition reaches its midpoint. As for `COc1cc(C(=O)NC[C@@H](O)[C@@H]2Cc3ccc(OCc4ocnc4C)cc3CN2)cc(NC2CCC2)n1` [Compound 26, 2-(cyclobutylamino)-N—((R)-2-hydroxy-2-((S)-7-((4-methyloxazol-5-yl)methoxy)-1,2,3,4-tetrahydroisoquinolin-3-yl)ethyl)-6-methoxyisonicotinamide], the IC50 is below 50 nM at PRMT5 [1]; below 1000 nM in experiment [2]; 50 to 500 nM at PRMT5 [3]; 50 to 500 nM on PRMT5 [4]; below 1000 nM in experiment [5]. The “SAM/MTA Ratio” value at PRMT5 [1] was “A (a Ki ratio greater than or equal to 10 fold between the Ki in the presence of SAM and the Ki in the presence of MTA)”. The “MTAP Intact/Deleted Ratio” value in experiment [5] was “C* (an IC50 ratio of less than 3 fold between the IC50 in the HAP1 MTAP-intact cell line and the HAP1 MTAP-deleted cell line)”.
As to `Cc1ncoc1COc1ccc2c(c1)CN[C@H]([C@H](O)CNC(=O)c1cc(NC3CCC3)ncc1F)C2` [Compound 27, 2-(cyclobutylamino)-5-fluoro-N—((R)-2-hydroxy-2-((S)-7-((4-methyloxazol-5-yl)methoxy)-1,2,3,4-tetrahydroisoquinolin-3-yl)ethyl)isonicotinamide], the IC50 against PRMT5 [1] was 50 to 500 nM; in experiment [2], 1000 to 10000 nM; on PRMT5 [3], 50 to 500 nM; on PRMT5 [4], 500 to 5000 nM; in experiment [5] it was below 1000 nM. Besides, at PRMT5 [1], the “SAM/MTA Ratio” value is “A (a Ki ratio greater than or equal to 10 fold between the Ki in the presence of SAM and the Ki in the presence of MTA)”. Besides, the “MTAP Intact/Deleted Ratio” value in experiment [5] is “A* (an IC50 ratio greater than or equal to 10 fold between the IC50 in the HAP1 MTAP-intact cell line and the HAP1 MTAP-deleted cell line)”.
On to `Cc1ncoc1COc1ccc2c(c1)CN[C@H]([C@H](O)CNC(=O)c1cccc(NC3CCC3)c1)C2` [Compound 28, 3-(cyclobutylamino)-N—((R)-2-hydroxy-2-((S)-7-((4-methyloxazol-5-yl)methoxy)-1,2,3,4-tetrahydroisoquinolin-3-yl)ethyl)benzamide], for which the half-maximal inhibitory concentration (IC50) at PRMT5 [1] is below 50 nM; in experiment [2], 1000 to 10000 nM; on PRMT5 [3] it was 50 to 500 nM; on PRMT5 [4] it was 50 to 500 nM; in experiment [5], below 1000 nM. Besides, at PRMT5 [1], the “SAM/MTA Ratio” value is “A (a Ki ratio greater than or equal to 10 fold between the Ki in the presence of SAM and the Ki in the presence of MTA)”. For the same compound, the “MTAP Intact/Deleted Ratio” value in experiment [5] was “A* (an IC50 ratio greater than or equal to 10 fold between the IC50 in the HAP1 MTAP-intact cell line and the HAP1 MTAP-deleted cell line)”.
On to `CC(=O)N1CCN(c2cc(C(=O)NC[C@@H](O)[C@@H]3Cc4ccc(OCc5ocnc5C)cc4CN3)cc(NC3CCC3)n2)CC1` [Compound 29, 2-(4-acetylpiperazin-1-yl)-6-(cyclobutylamino)-N—((R)-2-hydroxy-2-((S)-7-((4-methyloxazol-5-yl)methoxy)-1,2,3,4-tetrahydroisoquinolin-3-yl)ethyl)isonicotinamide], for which the concentration for half-maximal inhibition (IC50) against PRMT5 [1] was below 50 nM; in experiment [2], 1000 to 10000 nM; on PRMT5 [3], 50 to 500 nM; on PRMT5 [4] it was 50 to 500 nM; in experiment [5], below 1000 nM. Moreover, at PRMT5 [1], the “SAM/MTA Ratio” value was “A (a Ki ratio greater than or equal to 10 fold between the Ki in the presence of SAM and the Ki in the presence of MTA)”. The “MTAP Intact/Deleted Ratio” value in experiment [5] was “A* (an IC50 ratio greater than or equal to 10 fold between the IC50 in the HAP1 MTAP-intact cell line and the HAP1 MTAP-deleted cell line)”.
For `Cc1ncoc1COc1ccc2c(c1)CN[C@H]([C@H](O)CNC(=O)c1cc(NC3CCC3)nc(N3CCN(C(C)C)CC3)c1)C2` [Compound 30, 2-(cyclobutylamino)-N—((R)-2-hydroxy-2-((S)-7-((4-methyloxazol-5-yl)methoxy)-1,2,3,4-tetrahydroisoquinolin-3-yl)ethyl)-6-(4-isopropylpiperazin-1-yl)isonicotinamide], the IC50 on PRMT5 [1] was below 50 nM; in experiment [2], at least 10000 nM; on PRMT5 [3], 50 to 500 nM; at PRMT5 [4] it was 50 to 500 nM; in experiment [5], at least 10000 nM. Further, the “SAM/MTA Ratio” value at PRMT5 [1] was “A (a Ki ratio greater than or equal to 10 fold between the Ki in the presence of SAM and the Ki in the presence of MTA)”. Moreover, the “MTAP Intact/Deleted Ratio” value in experiment [5] is “C* (an IC50 ratio of less than 3 fold between the IC50 in the HAP1 MTAP-intact cell line and the HAP1 MTAP-deleted cell line)”.
For the compound `Cc1ncoc1COc1ccc2c(c1)CN[C@H]([C@H](O)CNC(=O)c1cc(NC3CCC3)nc(N3CCCCC3)c1)C2` [Compound 31, 2-(cyclobutylamino)-N—((R)-2-hydroxy-2-((S)-7-((4-methyloxazol-5-yl)methoxy)-1,2,3,4-tetrahydroisoquinolin-3-yl)ethyl)-6-(piperidin-1-yl)isonicotinamide], the IC50 against PRMT5 [1] is 50 to 500 nM; in experiment [2], below 1000 nM; on PRMT5 [3], 50 to 500 nM; at PRMT5 [4], 50 to 500 nM; in experiment [5], below 1000 nM. For the same compound, the “SAM/MTA Ratio” value on PRMT5 [1] is “A (a Ki ratio greater than or equal to 10 fold between the Ki in the presence of SAM and the Ki in the presence of MTA)”. Moreover, the “MTAP Intact/Deleted Ratio” value in experiment [5] is “C* (an IC50 ratio of less than 3 fold between the IC50 in the HAP1 MTAP-intact cell line and the HAP1 MTAP-deleted cell line)”.
On to `Cc1ncoc1COc1ccc2c(c1)CN[C@H]([C@H](O)CNC(=O)c1cc(NC3CCC3)ncn1)C2` [Compound 32, 6-(cyclobutylamino)-N—((R)-2-hydroxy-2-((S)-7-((4-methyloxazol-5-yl)methoxy)-1,2,3,4-tetrahydroisoquinolin-3-yl)ethyl)pyrimidine-4-carboxamide], for which the IC50 is below 50 nM against PRMT5 [1]; 1000 to 10000 nM in experiment [2]; 50 to 500 nM at PRMT5 [3]; 500 to 5000 nM on PRMT5 [4]; below 1000 nM in experiment [5]. The “SAM/MTA Ratio” value on PRMT5 [1] was “A (a Ki ratio greater than or equal to 10 fold between the Ki in the presence of SAM and the Ki in the presence of MTA)”. Moreover, the “MTAP Intact/Deleted Ratio” value in experiment [5] was “B* (an IC50 ratio greater than or equal to 3 fold but lower than 10 fold between the IC50 in the HAP1 MTAP-intact cell line and the HAP1 MTAP-deleted cell line)”.
As for `COCCN(C)c1cc(C(=O)NC[C@@H](O)[C@@H]2Cc3ccc(OCc4ocnc4C)cc3CN2)cc(NC2CCC2)n1` [Compound 33, 2-(cyclobutylamino)-N—((R)-2-hydroxy-2-((S)-7-((4-methyloxazol-5-yl)methoxy)-1,2,3,4-tetrahydroisoquinolin-3-yl)ethyl)-6-((2-methoxyethyl)(methyl)amino)isonicotinamide], the IC50 against PRMT5 [1] was 50 to 500 nM; in experiment [2], 1000 to 10000 nM; on PRMT5 [3] it was 50 to 500 nM; on PRMT5 [4], 50 to 500 nM; in experiment [5], below 1000 nM. At PRMT5 [1], the “SAM/MTA Ratio” value is “A (a Ki ratio greater than or equal to 10 fold between the Ki in the presence of SAM and the Ki in the presence of MTA)”. Also, the “MTAP Intact/Deleted Ratio” value in experiment [5] is “B* (an IC50 ratio greater than or equal to 3 fold but lower than 10 fold between the IC50 in the HAP1 MTAP-intact cell line and the HAP1 MTAP-deleted cell line)”.
For the compound `Cc1ncoc1COc1ccc2c(c1)CN[C@H]([C@H](O)CNC(=O)c1ccnc(Nc3cccnc3)c1)C2` [Compound 34, N—((R)-2-hydroxy-2-((S)-7-((4-methyloxazol-5-yl)methoxy)-1,2,3,4-tetrahydroisoquinolin-3-yl)ethyl)-2-(pyridin-3-ylamino)isonicotinamide], the half-inhibitory concentration (IC50) is below 50 nM at PRMT5 [1]; at least 10000 nM in experiment [2]; 50 to 500 nM at PRMT5 [3]; 50 to 500 nM on PRMT5 [4]; 1000 to 10000 nM in experiment [5]. The “SAM/MTA Ratio” value at PRMT5 [1] is “A (a Ki ratio greater than or equal to 10 fold between the Ki in the presence of SAM and the Ki in the presence of MTA)”. The “MTAP Intact/Deleted Ratio” value in experiment [5] is “B* (an IC50 ratio greater than or equal to 3 fold but lower than 10 fold between the IC50 in the HAP1 MTAP-intact cell line and the HAP1 MTAP-deleted cell line)”.
Consider `Cc1ncoc1COc1ccc2c(c1)CN[C@H]([C@H](O)CNC(=O)c1cc(NC3CCC3)ccn1)C2` [Compound 35, 4-(cyclobutylamino)-N—((R)-2-hydroxy-2-((S)-7-((4-methyloxazol-5-yl)methoxy)-1,2,3,4-tetrahydroisoquinolin-3-yl)ethyl)picolinamide], for which the IC50 against PRMT5 [1] is below 50 nM; in experiment [2], 1000 to 10000 nM; on PRMT5 [3], 50 to 500 nM; at PRMT5 [4] it was 500 to 5000 nM; in experiment [5], below 1000 nM. The “SAM/MTA Ratio” value at PRMT5 [1] was “A (a Ki ratio greater than or equal to 10 fold between the Ki in the presence of SAM and the Ki in the presence of MTA)”. For the same compound, in experiment [5], the “MTAP Intact/Deleted Ratio” value was “A* (an IC50 ratio greater than or equal to 10 fold between the IC50 in the HAP1 MTAP-intact cell line and the HAP1 MTAP-deleted cell line)”.
